Data: patent US5629298A, “Adenosine as a positive inotrop in the compromised heart” (University of Massachusetts Medical Center, priority 1995, dated 1997)
Like-named read-outs stand apart in the source and are kept apart here.

Assays:
[1] = tested on: cultured ventricular myocytes; test: cAMP content of cultured ventricular myocytes (125I-cAMP RIA); assay type: cell-based, rat; details: Rattus norvegicus, Ventricular myocyte, 1 min, read-out: increase in myocyte cAMP over basal
Procedure: When myocytes were to be used for biochemical studies, each of the culture dishes was preincubated for 2 hours with 1 ml of MEM containing 33 μg of laminin in a 37° C. incubator gassed with 5% CO2 in room air. The laminin solution was removed prior to myocyte seeding. After seeding, the dishes were incubated for an additional 2 hours. The settling and short term culture procedures were performed to purify the myocytes so that >95% of the myocytes adhering to the dishes were rod shaped.
Cyclic AMP levels were determined in cultures of ventricular myocytes according to the following method. After the 2-hour incubation period, the MEM was aspirated and replaced with 2 ml of fresh MEM. Adenosine agonists, ISO, or adenosine antagonists were added to the medium bathing the cells at the concentrations and times indicated. The experiment was terminated by removing the medium from the dish and adding 200 μl of 1N HCl over the cultured myocyte surface. The dishes were then frozen in liquid N2 and stored at -70° C. or held on ice momentarily until extraction was initiated.
For assay, the contents of the dishes were transferred (using 1 ml of distilled/deionized H2 O) into microcentrifuge tubes. The extracts were heated for 1 hour at 57° C. and sonicated for 10 minutes. The extracts were then centrifugated at 14,000 x g for 15 minutes. The supernatant was removed, evaporated, reconstituted in 500 μl of 50 mM sodium acetate buffer and assayed for cAMP using an ^125 I-cAMP RIA kit (Amersham). The pellet was solubilized with 0.1N NaOH and protein determined. The cAMP values are reported in pmol cAMP/mg protein of the extract pellet (total cell protein). This cAMP assay procedure routinely provided recovery values in excess of 90%.

rat ventricular myocytes = test: Contractile function of individual ventricular myocytes (line scan camera edge detection, paced at 0.5 Hz); assay type: cell-based; details: for inhibition at 0.2 µM / activation at 0.2 µM: Rattus norvegicus, Ventricular myocyte, ISO at 0.2 μM; for +dL/dtmax, maximal rate of shortening / -dL/dtmax, maximal rate of relaxation / DS, duration of shortening / LC, maximum length change (shortening) with contraction / TPS, time-to-peak shortening / TR, time to 75% relaxation: mean ± SE, N = 6
Procedure: Primary cultures of adult rat ventricular myocytes were prepared essentially according to previously described methods (Romano et al., Am. J. Physiol. 257:H1088 (1989)). Two male Sprague-Dawley rats (Charles River, Wilmington, Mass. or Harlan, Indianapolis, Ind.) were decapitated, and the hearts were rapidly excised and constant pressure (70 cm H2) and nonrecirculated) perfused for 10 minutes through the aortas with filtered (0.45 μm membrane filter) perfusing solution (NaCl, 118 mM; glucose, 10 mM; NaHCO3 25 mM; KCl, 4.69 mM; MgSO4 1.18 mM; and KH2 PO4, 1.18 mM; (pH 7.4)), to which […] was added, at 37° C. After equilibration, the hearts were constant pressure perfused with fresh physiological saline ("PS") containing no added Ca^2+ until spontaneous contractions ceased (i.e., ~30 seconds). The hearts were then perfused for 4-10 minutes in a nonrecirculating manner with PS containing 0.73 mg/ml collagenase, 0.16 mg/ml hyaluronidase, 1 mg/ml recrystallized bovine serum albumin ("BSA") and 48.4 μM Ca^2+ at a rate of 3-4 ml/min/heart. Ventricles, free of atria, were removed from the perfusion system, cut into 8 pieces and placed in a 50 ml Erlenmeyer flask with 5 ml of PS containing 0.73 mg/ml collagenase, 0.16 mg/ml hyaluronidase, 2.5 mg/ml BSA, and 50 μM Ca^2+ (incubation solution). The flask was gently shaken (40 cycles/min) in a reciprocating water bath with continuous gassing (95% O2, 5% CO2) for 7 minutes at 37° C. The incubation solution was aspirated and this shaking procedure was repeated with fresh incubation solution 3-5 times depending on the likelihood that the tissue was ready to dissociate. After the final incubation period, the solution was aspirated and replaced with 10 ml of fresh incubation solution. The flask was then shaken rapidly (120 cycles/min) for 10 minutes with gassing to dissociate the myocytes. The flask contents were filtered through a 250 μm nylon mesh into a 50 ml polypropylene centrifuge tube, to which 40 ml of PS containing 5.95 mg/ml BSA and 99.7 μm Ca^2+ (wash solution) was gradually added.
The myocytes were allowed to settle for 15 minutes, and the upper two thirds of the wash solution was aspirated. Upon the addition of 30-35 ml of wash solution, this settling step was repeated. The wash solution was aspirated and the myocyte pellet was resuspended in 10 ml of minimum essential medium ("MEM"). The myocyte suspension was allowed to settle for 5 minutes and then brought to a final volume of 22 ml with MEM. Two milliliters of the myocyte suspension was seeded onto each of 60 mm culture dishes containing 2 ml of MEM.
The contractile function of individual myocytes was assessed by dispersing 50-100 cells in a 506 μl myocyte chamber (11×23×2 mm deep). The chamber (FIG. 1) was continuously suffused (850 μl/min) with fresh suffusion solution ("SS") in mM: 136.4 NaCl, 4.7 KCl, 1.0 CaCl2, 10 hydroxyethylpiperzine-ethanesulfonicacid (HEPES), 1.0 NaHCO3, 1.2 MgSO4, 1.2 KH2 PO4, 10 glucose, 0.6 ascorbate, 1.0 pyruvate) at 20° C. The chamber was mounted on an inverted microscope stage and contained platinum wire electrodes for initiating myocyte contraction at 0.5 Hz (voltage 10% above threshold for 5 msec duration).
The image of the myocyte was projected via an inverted microscope at 300× onto a line scan camera (Fairchild, Model 1600R) containing a linear array (1×3456) of photodiodes. When aligned with the longitudinal axis of the cell the camera detected the movement of the 2 ends of the myocyte upon contraction (shortening and relengthening). […] When the myocyte was transilluminated, both ends of the cell were easily discriminated. Myocyte length and length change with respect to time for a single contraction was measured by determining the pixels in which the appropriate transitions between light and dark occurred. The line scan camera was calibrated with a stage micrometer scaled in 10 μm divisions. The signals from the camera were directed to a Hewlett Packard computer (Model Vectra RS/20C). […]

[2] = ISO at 0.1 μM in the presence of 1 μM PIA
[3] = Table 2, 0.2 μM ISO, 2 μM PIA, 0.2 μM DPCPX added sequentially every 8-10 min, maximum responses
[4] = 100 μM adenosine administered together with 0.2 μM DPCPX
[5] = Table 6, 10^-5 M SHA-082, 10^-5 M NECA, 10^-4 M adenosine, 2 × 10^-7 M DPCPX, 10^-5 M CGS-15943

## CC(C)NCC(O)c1ccc(O)c(O)c1 (stereo not drawn) [ISO, isoproterenol]
[1]; ISO at 0.1 μM for 1 minutes
  activation at 0.1 µM: 90%
[1]; ISO at 1 μM for 1 minutes
  activation at 1 µM: 138%
Rat ventricular myocytes; [2]
  decrease in TR: 10%
  increase in +dL/dtmax: 70%
  increase in -dL/dtmax: 93%
  increase in LC: 44%
Rat ventricular myocytes; read-out: decrease in DS
  inhibition at 0.2 µM: 30%
Rat ventricular myocytes; read-out: decrease in TPS
  inhibition at 0.2 µM: 14%
Rat ventricular myocytes; read-out: decrease in TR
  inhibition at 0.2 µM: 39%
Rat ventricular myocytes; read-out: increase in +dL/dtmax
  activation at 0.2 µM: 63%
Rat ventricular myocytes; read-out: increase in -dL/dtmax
  activation at 0.2 µM: 100%
Rat ventricular myocytes; read-out: increase in LC
  activation at 0.2 µM: 61%
Rat ventricular myocytes; [3]
  +dL/dtmax, maximal rate of shortening: 260 ± 13 μm/msec
  -dL/dtmax, maximal rate of relaxation: 180 ± 17 μm/msec
  DS, duration of shortening: 263 ± 16 ms
  LC, maximum length change (shortening) with contraction: 29 ± 2 μm
  TPS, time-to-peak shortening: 103 ± 4 ms
  TR, time to 75% relaxation: 210 ± 8 ms

## Nc1ncnc2c1ncn2[C@@H]1O[C@H](CO)[C@@H](O)[C@H]1O [adenosine]
Rat ventricular myocytes; [4]
  increase in +dL/dtmax: 29%
  increase in DS: 20%
  increase in LC: 35%
  increase in TPS: 27%
  increase in TR: 37%
Rat ventricular myocytes; 100 μM adenosine or 0.2 μM DPCPX
  effect on myocyte contractility when administered alone: without effect
Rat ventricular myocytes; [5]
  +dL/dtmax, maximal rate of shortening: 180 ± 10 μm/msec
  -dL/dtmax, maximal rate of relaxation: 151 ± 10 μm/msec
  DS, duration of shortening: 293 ± 16 ms
  LC, maximum length change (shortening) with contraction: 16 ± 1 μm
  TPS, time-to-peak shortening: 120 ± 4 ms
  TR, time to 75% relaxation: 281 ± 12 ms
